The text below walks through data of patent US20170121295A1, “POLYCYCLIC LPA1 ANTAGONIST AND USES THEREOF” (AMIRA PHARMACEUTICALS, INC., priority 2010, published 2017).

Structures are written as SMILES. pIC50: −log10 of the molar value. Read-outs that look alike come from different tables or passages of the source.

One data set deals with T1, Human LPA1 (Homo sapiens, UniProt Q92633).
T1 construct: the full-length cDNA for human LPA1 was obtained by PCR of the reverse transcription reaction; expressed in transfected cells
T1 sequence (Q92633 whole entry): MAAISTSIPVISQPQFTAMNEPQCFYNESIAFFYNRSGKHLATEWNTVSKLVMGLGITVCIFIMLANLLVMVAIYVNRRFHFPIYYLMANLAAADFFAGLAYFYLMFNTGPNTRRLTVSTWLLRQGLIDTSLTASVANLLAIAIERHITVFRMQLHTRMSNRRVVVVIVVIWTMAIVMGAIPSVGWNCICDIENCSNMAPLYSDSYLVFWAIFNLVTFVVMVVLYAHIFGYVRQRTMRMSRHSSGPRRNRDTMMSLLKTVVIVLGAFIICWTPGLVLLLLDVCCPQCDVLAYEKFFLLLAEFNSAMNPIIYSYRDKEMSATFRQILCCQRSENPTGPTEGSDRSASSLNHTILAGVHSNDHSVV
Description: LPA1 Calcium Flux Assay. The data set is classed as cell-based. As to conditions: human LPA1 expressing CHO cells, 10 nM LPA; read-out: Ca Flux IC50 LPA1. As for the experimental part:
A 1.1 kb cDNA encoding the human LPA1 receptor was cloned from human lung. Human lung RNA (Clontech Laboratories, Inc. USA) was reverse transcribed using the RETROscript kit (Ambion, Inc.) and the full-length cDNA for human LPA1 was obtained by PCR of the reverse transcription reaction. The nucleotide sequence of the cloned human LPA1 was determined by sequencing and confirmed to be identical to the published human LPA1 sequence (An et al. Biochem. Biophys. Res. Commun. 231:619 (1997). The cDNA was cloned into the pCDNA5/FRT expression plasmid and transfected in CHO cells using lipofectamine 2000 (Invitrogen Corp., USA). Clones stably expressing human LPA1 were selected using hygromycin and identified as cells that show Ca-influx in response to LPA.
(§1) Human LPA1 or LPA3 expressing CHO cells are seeded at 20,000-45,000 cells per well in a 96-well poly-D-lysine coated plate one or two days before the assay. Prior to the assay, the cells are washed once with PBS and then cultured in serum-free media overnight. On the day of the assay, a calcium indicator dye (Calcium 4, Molecular Devices) in assay buffer (HBSS with Ca^2+ and Mg^2+ and containing 20 mM Hepes and 0.3% fatty-acid free human serum albumin) is added to each well and incubation continued for 1 hour at 37° C. 10 μl of test compound in 2.5% DMSO are added to the cells and incubation continued at room temperature for 30 minutes. Cells are the stimulated by the addition of 10 nM LPA and intracellular Ca^2+ measured using the Flexstation 3 (Molecular Devices). IC50s are determined using Graphpad prism analysis of drug titration curves.

A further data set addresses T2, Human LPA3 (Homo sapiens, UniProt Q9UBY5).
T2 construct: The full-length cDNA fragment for human LPA3 was obtained by PCR from the vector
T2 sequence (Q9UBY5 1-353): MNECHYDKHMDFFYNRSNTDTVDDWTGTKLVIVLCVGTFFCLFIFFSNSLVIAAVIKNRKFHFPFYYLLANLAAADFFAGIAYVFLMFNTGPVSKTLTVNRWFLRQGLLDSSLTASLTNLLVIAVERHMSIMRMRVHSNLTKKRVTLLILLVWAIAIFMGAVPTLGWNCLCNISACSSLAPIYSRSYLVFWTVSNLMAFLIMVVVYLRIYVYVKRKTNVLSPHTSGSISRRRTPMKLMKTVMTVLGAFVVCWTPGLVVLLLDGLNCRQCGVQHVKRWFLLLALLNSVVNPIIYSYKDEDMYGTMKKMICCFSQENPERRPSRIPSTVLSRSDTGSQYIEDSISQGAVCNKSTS
The data set is described as follows: LPA3 Calcium Flux Assay. The data set is classed as cell-based. As to conditions: human LPA3 expressing CHO cells, 10 nM LPA; read-out: Ca Flux IC50 LPA3. The procedure:
A vector containing the human LPA3 receptor cDNA was obtained from the Missouri S&T cDNA Resource Center (www.cdna.org). The full-length cDNA fragment for human LPA3 was obtained by PCR from the vector. The nucleotide sequence of the cloned human LPA3 was determined by sequencing and confirmed to be identical to the published human LPA3 sequence (NCBI accession number NM_012152). The cDNA was cloned into the pCDNA5/FRT expression plasmid and transfected in CHO cells using lipofectamine 2000 (Invitrogen Corp., USA). Clones stably expressing human LPA3 were selected using hygromycin and identified as cells that show Ca-influx in response to LPA.
as §1

Data set [1] in a line: Thermodynamic aqueous solubility. The data set is classed as physicochemical. The note with it: water, 25 °C, thermodynamic from solid, equilibrated at 25° C. for 24 hours, read-out: Solubility (mg/ml, free form equivalent). The procedure: Aqueous solubility was determined by suspending sufficient compound in water to give a maximum final concentration of ≧10 mg·ml−1 of the parent free-form of the compound. The suspension was equilibrated at 25° C. for 24 hours then the pH was measured. The suspension was then filtered through a glass fiber C filter into a 96 well plate unless stated otherwise. The filtrate was then diluted by a factor of 101. Quantification was by HPLC with reference to a standard solution of approximately 0.25 mg·ml^−1 in DMSO. Different volumes of the standard, diluted and undiluted sample solutions were injected. The solubility was calculated using the peak areas determined by integration of the peak found at the same retention time as the principal peak in the standard injection.
Analysis was performed on an Agilent HP1100 series system equipped with a diode array detector and using ChemStation software vB.02.01-SR1.

A short description of data set [2]: Pharmacokinetics in Sprague-Dawley Rats. The data set is classed as in vivo. As to conditions: for half-life: Sprague-Dawley, rat, plasma; for dose normalized exposure: oral, 10 mg/kg. The procedure: The pharmacokinetics of Compound 1 and Compound 2 was assessed in male and female Sprague-Dawley rats (225-300 g at 10 weeks).
Compound 2 (1 mg/kg) was administered intravenously (IV) to fasted rats (n=3) as a solution in purified water via a bolus injection into the jugular vein (1 mg/mL; 1 mL/kg). Compound 1 (10 mg/kg) was administered orally (PO), to fasted (for at least 12 hours) or non-fasted rats (n=2 or 3) as a solution in 0.5% methylcellulose unless otherwise noted via an oral gavage to the stomach (3.33 mg/mL; 3 mL/kg). Non-fasted animals were fasted for at least 12 hours and then were given food ad libitum for 1 hour prior to dosing. Fasted animals were dosed 1, 10, 30, 100 or 300 mg/kg Compound 1 as a solution in 0.5% methylcellulose via an oral gavage to the stomach (0.69 mg/mL, 10 mg/mL, 33.3 mg/mL or 100 mg/mL) (n=2 or 3 per dose group). In a gastrointestinal study, rats were anesthetized and Compound 1 was administered directly to the duodenum, jcjunum or ilcum at 1 mg/kg in 0.5% methylcellulose.
Capsules were also administered with Compound 2. Capsules were size 9 gelatin (Torpac, San Diego, Calif.).
Blood samples (approximately 300 μL total blood) were taken from each rat via the jugular vein cannula at pre-dose, and an initial time of 5 or 15 min and then various time points up to 24 hours post-dose (10-11 samples per animal). Samples were collected on wet ice in tubes containing potassium EDTA. After each blood draw, the cannula was flushed with an equivalent volume of heparinized saline (0.1 mL at 40 units/mL). Plasma samples, prepared by centrifugation of whole blood, were stored frozen (−80° C.) prior to analysis.

The nature of data set [3]: Pharmacokinetics in Male Beagle Dogs. The data set is classed as in vivo. The note with it: for bioavailability: po, 5 mg/kg, read-out: apparent oral bioavailability. The procedure:
The pharmacokinetics of Compound 1 and Compound 2 was assessed in male Beagle dogs.
Dosing of male Beagle dogs (n=3) was performed. Compound 1 or Compound 2 was dosed intravenously at 2 mg/kg (fasted) and orally (fasted or non-fasted) at 5 mg/kg. In fasted animals, food was withheld a minimum of 12 hours prior to dosing and then returned 4 hours post-dose. Non-fasted animals were allowed to feed 1 hour prior to dosing ad libitum. Compound 2 capsules were given by oral gavage in the fasted state. Plasma samples were collected by Perry Scientific study personnel.
The capsules are noted in Table 25 below. Capsules were size 0 gelatin (Capsugel, Peapack, N.J.). Tablet formulations are noted in Example 24.
For the clinical drug product oral solution of active agent (1.67 mg/mL), sucralose (0.5% w/w) and cherry flavor (0.5% w/w) is added to the formulation as a sweetener and taste masking agent, respectively to a 0.5% methocel aqueous solution.
Blood samples (approximately 1 mL total blood) were taken from each dog at pre-dose, and an initial time of 5 or 15 min and then various time points up to 24 hours post-dose (10-11 samples per animal). Samples were collected on wet ice in tubes containing potassium EDTA. After each blood draw, the cannula was flushed with an equivalent volume of heparinized saline (0.1 mL at 40 units/mL). Plasma samples, prepared by centrifugation of whole blood, were stored frozen (−80° C.) prior to analysis.

In the next data set the test system is renal fibrosis. As to conditions: compared with LPA1 (−/−) mice; cited from earlier work.
Data set [4] relates to pancreatic cancer cell lines. As to conditions: in response to LPA and peritoneal fluid (ascites) from pancreatic cancer patients; cited from earlier work.
The subject of data set [5] is highly peritoneal metastatic pancreatic cancer cell line. The note with it: LPA-induced and ascites-induced; cited from earlier work.
[6] abbreviates: male, Beagle, dog, plasma, oral 5 mg/kg, fasted state.

Take `Cc1noc(-c2ccc(-c3ccc(C4(C(=O)O)CC4)cc3)cc2)c1NC(=O)OC(C)c1ccccc1` (racemic) [Racemic Compound 1]: the pIC50 at Human LPA1 is > 6.70; on Human LPA3 it was < 6.00.

With `Cc1noc(-c2ccc(-c3ccc(C4(C(=O)[O-])CC4)cc3)cc2)c1NC(=O)O[C@H](C)c1ccccc1.[Na+]` [Compound 2, 1-{4′-[3-methyl-4-((R)-1-phenyl-ethoxycarbonylamino)-isoxazol-5-yl]-biphenyl-4-yl}-cyclopropanecarboxylic acid, sodium salt], the solubility at 24 h in data set [1] is ≥ 10 mg/mL. Further, in data set [2] (IV 1 mg/kg), the volume of distribution entry was “approximately two-fold total body water”. The half-life in data set [2] (female, IV 1 mg/kg, females) is 3.2 h; in data set [2] (male, IV 1 mg/kg, males), 3.8 h; in data set [3] (male, Beagle, dog, plasma, IV 2 mg/kg, read-out: terminal half-life (converted)), 3.9 h. Further, the values for the dose normalized exposure in data set [2] and in data set [2] (in a gelatin capsule) were 2.4 µg·h/mL and 2.1 µg·h/mL, respectively. In addition, the “effect of food on absorption” value in data set [3] (dog, fasted vs fed) was “food has little effect on the absorption”. In addition, the “decrease of AUC” value in data set [3] (dosed as a capsule form, fasted) is given as 2.5 fold. Besides, the bioavailability in data set [3] (male, Beagle, dog, plasma, dosed as a capsule form, fasted) turned out to be 24%; in data set [3] (male, Beagle, dog, plasma, human dose solution), 57%; in data set [3] (setting [6]), 63%; in data set [3] (male, Beagle, dog, plasma, oral 5 mg/kg, fed state), 60%; in data set [3] (male, Beagle, dog, plasma, tablet formulation (first of two)) it was 100%; in data set [3] (male, Beagle, dog, plasma, tablet formulation (second of two)) it was 52%. In data set [3] (male, Beagle, dog, plasma, IV 2 mg/kg, read-out: estimated volume of distribution), the Vd is 0.6 L/kg. Moreover, in data set [3] (male, Beagle, dog, plasma, IV 2 mg/kg, read-out: systemic clearance), the clearance stood at 10.5 mL/min/kg. In data set [3] (setting [6]), this compound had a Cmax of 5500 ng/mL.

For `Cc1noc(-c2ccc(CSCCC(=O)O)cc2)c1NC(=O)OC(C)c1ccccc1Cl` (stereo not shown) [Ki16425], the “development of renal fibrosis in UUO mice” value in the data set with renal fibrosis is “closely resembled the LPA1 (−/−) mice”. In data set [4], the in vitro migration entry was “effectively blocked”. For the same compound, the invasion activity result in data set [5] is “blocked”.

Regarding `Cc1noc(-c2ccc(-c3ccc(C4(C(=O)O)CC4)cc3)cc2)c1NC(=O)O[C@@H](C)c1ccccc1` [S-enantiomer of Compound 1], the pIC50 on Human LPA1 was > 6.70; on Human LPA3 it was < 6.00.
